# In article PMC12808100, “The non-catalytic DNA polymerase ε subunit is an NPF motif recognition protein” (Nature Communications, 2025):
# Columns and labels:
# [1] = molecular target: T1, PPP2R2A (Homo sapiens, UniProt P63151); assay: nHU-MS peptide bait, prey PPP2R2A; details: FigureS2 Volcano
# T1 sequence (P63151 1-447): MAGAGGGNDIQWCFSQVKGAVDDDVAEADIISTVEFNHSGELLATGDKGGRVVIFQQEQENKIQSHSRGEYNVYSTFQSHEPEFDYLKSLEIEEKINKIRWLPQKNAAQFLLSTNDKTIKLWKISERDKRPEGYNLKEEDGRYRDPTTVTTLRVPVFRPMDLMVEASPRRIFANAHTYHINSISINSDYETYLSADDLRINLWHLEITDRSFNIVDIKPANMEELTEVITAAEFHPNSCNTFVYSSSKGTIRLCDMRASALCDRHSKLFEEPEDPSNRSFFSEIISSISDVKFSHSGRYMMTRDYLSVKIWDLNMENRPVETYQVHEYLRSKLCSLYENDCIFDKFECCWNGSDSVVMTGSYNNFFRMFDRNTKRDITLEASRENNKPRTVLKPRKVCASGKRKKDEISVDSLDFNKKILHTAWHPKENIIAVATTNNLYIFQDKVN
# [2] = system: endogenous proteins of Jurkat extract; assay: Single-point nHU-MS with biotinylated NPF motif peptide baits, proteome-wide; type: binding, human; details: FigureS2 Volcano; prey FBXO3
# Description: To identify the partners of NPF motifs, we used the native holdup (nHU) assay that was recently developed by our team (Fig. 1B). The holdup approach has been extensively used to determine equilibrium dissociation constants of transient interactions mediated by PDZ and SH3 domains, 14-3-3, and human papilloma virus E6 proteins, and even nucleic acid-protein interactions[7],[30]–[35]. In the nHU experiments, a purified bait molecule, or a control compound, is immobilized on a resin at high concentration (typically 10 μM, or higher) and these resin stocks are subsequently mixed with dilute cell extracts. […] This liquid phase contains the unbound prey molecules at near binding equilibrium that can be quantified using selective and quantitative analytical approaches, such as mass spectrometry. Therefore, proteins that interact with the bait molecule will appear to be depleted in the solvent phase and by measuring its relative concentration compared to the control nHU experiment, the degree of binding (θ) can be determined that can be converted to apparent steady-state dissociation constants, according to:1 θ=1−Ifree/Itot=Cbait/Cbait+Kapp where Itot and Ifree are the measured total and bait-depleted equilibrium mass spectrometry total ion intensities of prey proteins, Cbait is the bait molecule concentration and Kapp is the apparent dissociation constant. […]
substance,measurement,setting,value
TSETSK [SYNJ1],-log10P,[1],6.763
same,log2FC,[1],-0.4164
same,log2FC,[2],-0.5002
